Tests used:
A549/ATCC = test: NCI 60 cell panel SRB screen; type: cell-based; conditions: Homo sapiens, single dose 10 μM, read-out: percent cell growth promotion
SF-268 = test: NCI 60 cell panel SRB screen; type: cell-based; conditions: Homo sapiens; SF-268, single dose 10 μM; read-out: percent cell growth promotion
SF-295 = test: NCI 60 cell panel SRB screen; type: cell-based; conditions: Homo sapiens; SF-295, single dose 10 μM; read-out: percent cell growth promotion
UACC-62 = test: NCI 60 cell panel SRB screen; type: cell-based; conditions: Homo sapiens, UACC-62, read-out: percent cell growth promotion
SK-MEL-5 = test: NCI 60 cell panel SRB screen; type: cell-based; conditions: Homo sapiens, SK-MEL-5, read-out: percent cell growth promotion
SR = test: NCI 60 cell panel SRB screen; type: cell-based; conditions: Homo sapiens, single dose 10 μM, read-out: percent cell growth promotion
UACC-257 = test: NCI 60 cell panel SRB screen; type: cell-based; conditions: Homo sapiens, UACC-257, read-out: percent cell growth promotion
CCRF-CEM = test: NCI 60 cell panel SRB screen; type: cell-based, human; conditions: Homo sapiens, single dose 10 μM, read-out: percent cell growth promotion
786-0 = test: NCI 60 cell panel SRB screen; type: cell-based; conditions: Homo sapiens; 786-0, single dose 10 μM; read-out: percent cell growth promotion
K-562 = test: NCI 60 cell panel SRB screen; type: cell-based; conditions: Homo sapiens, K562; K-562, single dose 10 μM; read-out: percent cell growth promotion
HOP-62 = test: NCI 60 cell panel SRB screen; type: cell-based; conditions: Homo sapiens; HOP-62, single dose 10 μM; read-out: percent cell growth promotion
OVCAR-3 = test: NCI 60 cell panel SRB screen; type: cell-based; conditions: Homo sapiens; OVCAR-3, single dose 10 μM; read-out: percent cell growth promotion
SW-620 = test: NCI 60 cell panel SRB screen; type: cell-based; conditions: Homo sapiens; SW-620, single dose 10 μM; read-out: percent cell growth promotion
HCT-116 = test: NCI 60 cell panel SRB screen; type: cell-based; conditions: Homo sapiens; HCT-116, single dose 10 μM; read-out: percent cell growth promotion
DU-145 = test: NCI 60 cell panel SRB screen; type: cell-based; conditions: Homo sapiens; DU-145, single dose 10 μM; read-out: percent cell growth promotion
RPMI-8226 = test: NCI 60 cell panel SRB screen; type: cell-based; conditions: Homo sapiens; RPMI-8226, single dose 10 μM; read-out: percent cell growth promotion
OVCAR-8 = test: NCI 60 cell panel SRB screen; type: cell-based; conditions: Homo sapiens; OVCAR-8, single dose 10 μM; read-out: percent cell growth promotion
MALME-3M = test: NCI 60 cell panel SRB screen; type: cell-based; conditions: Homo sapiens, Malme-3M, read-out: percent cell growth promotion
VEGFR-2 tyrosine kinase = molecular target: T1, VEGFR-2 tyrosine kinase (Homo sapiens, UniProt P35968); test: In vitro VEGFR-2 tyrosine kinase assay (BPS Bioscience); type: biochemical; conditions: read-out: VEGFR-2 % inhibition; 10 μM concentration
T1 construct: purchased BPS Bioscience 40301
T1 sequence (P35968 20-1356): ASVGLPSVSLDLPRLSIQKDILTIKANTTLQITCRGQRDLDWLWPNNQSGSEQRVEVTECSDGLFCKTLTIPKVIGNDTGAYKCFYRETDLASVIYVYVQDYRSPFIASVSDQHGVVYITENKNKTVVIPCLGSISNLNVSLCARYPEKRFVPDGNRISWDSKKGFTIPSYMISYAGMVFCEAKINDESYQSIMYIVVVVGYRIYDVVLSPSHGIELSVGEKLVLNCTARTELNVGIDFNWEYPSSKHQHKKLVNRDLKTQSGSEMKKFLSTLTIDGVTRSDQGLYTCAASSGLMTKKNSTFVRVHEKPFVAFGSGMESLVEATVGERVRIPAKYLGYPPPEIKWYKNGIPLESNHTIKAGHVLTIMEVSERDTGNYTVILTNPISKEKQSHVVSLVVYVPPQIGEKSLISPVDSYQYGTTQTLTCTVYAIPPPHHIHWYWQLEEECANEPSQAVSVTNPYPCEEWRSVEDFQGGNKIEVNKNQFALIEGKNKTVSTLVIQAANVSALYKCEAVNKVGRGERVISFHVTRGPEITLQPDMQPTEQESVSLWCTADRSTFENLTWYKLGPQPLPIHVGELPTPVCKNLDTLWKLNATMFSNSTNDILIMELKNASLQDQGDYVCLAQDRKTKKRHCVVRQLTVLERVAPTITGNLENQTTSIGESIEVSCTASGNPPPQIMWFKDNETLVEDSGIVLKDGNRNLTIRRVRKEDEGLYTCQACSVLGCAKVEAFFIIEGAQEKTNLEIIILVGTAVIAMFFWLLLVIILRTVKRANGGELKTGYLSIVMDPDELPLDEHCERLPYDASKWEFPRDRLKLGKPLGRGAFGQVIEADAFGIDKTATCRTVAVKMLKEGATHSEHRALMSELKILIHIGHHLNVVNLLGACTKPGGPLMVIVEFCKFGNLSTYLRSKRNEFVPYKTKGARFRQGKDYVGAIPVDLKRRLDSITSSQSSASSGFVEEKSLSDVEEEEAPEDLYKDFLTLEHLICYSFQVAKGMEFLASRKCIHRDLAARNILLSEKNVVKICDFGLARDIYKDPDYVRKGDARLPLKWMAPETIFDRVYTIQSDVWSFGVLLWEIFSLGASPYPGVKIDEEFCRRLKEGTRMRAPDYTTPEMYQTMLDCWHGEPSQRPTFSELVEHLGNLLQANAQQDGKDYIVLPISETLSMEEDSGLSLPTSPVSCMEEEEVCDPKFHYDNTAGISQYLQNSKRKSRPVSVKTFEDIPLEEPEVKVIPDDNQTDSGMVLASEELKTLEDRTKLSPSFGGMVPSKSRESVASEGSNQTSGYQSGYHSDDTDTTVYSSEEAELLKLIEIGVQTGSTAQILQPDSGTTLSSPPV
Procedure: The VEGFR tyrosine kinase assays were performed at BPS Bioscience (www.bpsbioscience.com). All the synthesised compounds representing the six series were evaluated for their ability to inhibit VEGFR-2 tyrosine kinase at single dose of 10 µM.
The VEGFR tyrosine kinase activity at single dose concentration of 10 μM was carried out by BPS Bioscience (www.bpsbioscience.com). VEGFR (BPS#40301) served as the enzyme source and Poly (Glu, Tyr) sodium salt, (4:1, Glu:Tyr) (Sigma#P7244) served as the standardized substrate & Kinase-Glo Plus Luminescence kinase assay kit (Promega#V3772). The IC50 determination was carried out where quality control testing is routinely performed on each of the targets to insure compliance to acceptable standards. ^33P-ATP was purchased from Perkin Elmer and ADP-Glo^TM was purchased from Promega. All other materials were of standard laboratory grade.
The VEGFR tyrosine kinase activity was performed using Kinase-Glo Plus luminescence kinase assay kit (Promega). It measures kinase activity by quantitating the amount of ATP remaining in solution following a kinase reaction. The luminescent signal from the assay is correlated with the amount of ATP present and is inversely correlated with the amount of kinase activity. The compounds were diluted to 100 μM in 10% DMSO and […] of the dilution was added to a […] reaction so that the final concentration of DMSO is 1% in all of reactions. All of the enzymatic reactions were conducted at 30 °C for 40 min. The 50 μl reaction mixture contains […], pH 7.4, […], 0.1 mg/ml BSA, 0.2 mg/ml Poly (Glu, Tyr) substrate, 10 μM ATP and VEGFR. After the enzymatic reaction, […] of Kinase-GloPlus Luminescence kinase assay solution (Promega) was added to each reaction and incubate the plate for 5 min at room temperature. Luminescence signal was measured using a BioTek Synergy 2 microplate reader. The protein kinase assays used to determine IC50 value were performed using ADP-GloTM assay kit from Promega which measures the generation of ADP by the protein kinase. Generation of ADP by the protein kinase reaction leads to an increase in luminescence signal in the presence of ADP-GloTM assay kit. The assay was started by incubating the reaction mixture in a 96-well plate at 30 °C for 30 min. After the 30 min incubation period, the assay was terminated by the addition of […] of ADP-GloTM Reagent (Promega). The 96 well plate was shaken and then incubated for 40 min at ambient temperature. […] of Kinase detection reagent was added, the 96-well reaction plate was then read using the ADP-Glo Luminescences Protocol on a GloMax plate reader (Promega: Catalog #E7031). Blank control was set up that included all the assay components except the addition of appropriate substrate (replace with equal volume of kinase assay buffer). The corrected activity for each protein kinase target was determined by removing the blank control value.
VEGFR activity assays were performed in duplicate at each concentration. The luminescence data were analyzed using the computer software, Graphpad Prism. The difference between luminescence intensities in the absence of VEGFR (Lut) and in the presence of VEGFR (Luc) was defined as 100% activity (Lut - Luc). […] IC50 determination for inhibitor against VEGFR was estimated by generating a graph of log inhibitor vs normalized response with variable using the Prism software.

M14 = test: NCI 60 cell panel SRB screen; type: cell-based; conditions: Homo sapiens, M14, read-out: percent cell growth promotion

In the case of `Cc1nnc(Nc2ccc(NC(=O)c3ccc(Cl)cc3)cc2)c2ccccc12` [Compound 5d, 4-Chloro-N-(4–(4-methylphthalazin-1-ylamino)phenyl)benzamide], the activity at 10 µM (A549/ATCC) is reported as 97.9%, the activity at 10 µM (SF-268) is reported as 90% and the activity at 10 µM (SF-295) is reported as 105%. It also gave an activity at 10 µM (UACC-62) of 95.9%, an activity at 10 µM (SK-MEL-5) of 78.7% and an activity at 10 µM (SR) of 86.3%. It also gave an activity at 10 µM (UACC-257) of 97.4%, an activity at 10 µM (CCRF-CEM) of 91% and an activity at 10 µM (786-0) of 109%. It also gave an activity at 10 µM (K-562) of 101%, an activity at 10 µM (HOP-62) of 88.8% and an activity at 10 µM (OVCAR-3) of 93.3%. For the same compound, the activity at 10 µM (SW-620) was 92.7%, the activity at 10 µM (HCT-116) was 92.2% and the activity at 10 µM (DU-145) was 102%. It also gave an activity at 10 µM (RPMI-8226) of 89.3%, an activity at 10 µM (OVCAR-8) of 93.1% and an activity at 10 µM (MALME-3M) of 99%. For the same compound, the inhibition at 10 µM (VEGFR-2 tyrosine kinase) was 15% and the activity at 10 µM (M14) was 97.1%.

From PMC6691788, “Design and synthesis of phthalazine-based compounds as potent anticancer agents with potential antiangiogenic activity via VEGFR-2 inhibition” (Journal of Enzyme Inhibition and Medicinal Chemistry, 2019)
